{"source": "patent US20230372382A1", "about": "“USE OF ADENOSINE DIPHOSPHATE RIBOSE FOR ADJUVANT THERAPY WITH RADIATION AND/OR ANTI-CANCER TREATMENT” (PearlsInMires Co., Ltd., priority 2021, published 2023)", "key": {"[1]": {"test_system": "Hep G2 cells", "test": "Cell death by combination treatment of ADP-ribose and radiation (MTT)", "type": "cell-based", "details": "Hep G2, 4 μM ADP-ribose in combination with 2 Gy radiation, 24 hours, P<0.001; 2 Gy alone about 82.3%", "procedure": "3×10^3 Brain cancer (U-87MG), lung cancer (H1975), pancreatic cancer (Aspc-1), liver cancer (Hep G2), breast cancer (MDA-MB-231), colon cancer (HCT116), and kidney cancer (Caki-1) cells were cultured in a 96-well plate for 24 hours under conditions of 37° C. and 5% CO2, treated with ADP-ribose or 2 or 5 Gy radiation alone or in combination with ADP-ribose and 2 Gy radiation, and cultured for 24 hours under conditions of 37° C. and 5% CO2 again. Then, 10 μl of 3-(4,5-dimethylthiazol-2-yl)-2,5-diphenyltetrazolium bromide reagent was added to each well and reacted for 1 hour. After the reaction was completed, the reagent was removed, 200 μl of dimethyl sulfoxide was added to each well, and the absorbance was measured to compare the degree of cell death.\n3×10^3 Hep G2 cells were cultured in a 96-well plate for 24 hours under conditions of 37° C. and 5% CO2, treated with 4 μM of ADP-ribose and 2 or 5 Gy dose of radiation individually or in combination, and cultured for 24 hours under conditions of 37° C. and 5% CO2 again. Then, 10 μl of 3-(4,5-dimethylthiazol-2-yl)-2,5-diphenyltetrazolium bromide reagent was added to each well and reacted for 1 hour. After the reaction was completed, the reagent was removed, 200 μl of dimethyl sulfoxide was added to each well, and the absorbance was measured to confirm cell viability."}, "[2]": {"test_system": "OVCAR-3 cells", "test": "Cancer cell death verification (MTT cell viability)", "type": "cell-based", "details": "OVCAR-3, 32 μM ADP-ribose, 24 hours", "procedure": "3×10^3 SNU-1 or OVCAR-3 cells were cultured in a 96-well plate for 24 hours under conditions of 37° C. and 5% CO2, treated with ADP-ribose at concentrations of 32 μM, respectively, and cultured again for 24 hours under conditions of 37° C. and 5% CO2. Then, 10 μl of 3-(4,5-dimethylthiazol-2-yl)-2,5-diphenyltetrazolium bromide reagent was added to each well and reacted for 1 hour. After the reaction was completed, the reagent was removed, 200 μl of dimethyl sulfoxide was added to each well, and the absorbance was measured to confirm cell viability."}, "[3]": {"test_system": "MDA-MB-231 cells", "test": "Cancer cell death verification (MTT cell viability)", "type": "cell-based"}, "[4]": {"test_system": "Hep G2 cells", "test": "ADP-ribose quantitative analysis (ELISA) in cancer cells", "type": "cell-based", "details": "8 μM ADP-ribose, 24 hours, P<0.001", "experimental": "After culturing, the culture medium was removed, the cells were washed with phosphate-buffered saline, and then RIPA buffer was added and the cells were left on ice for 20 minutes. After scraping the cells, the cells were put in a centrifuge tube and centrifuged for 10 minutes at 10,000 g and 4° C. The supernatant was obtained, and 1% SDS was added, and then the reaction product was boiled at 100° C. for 5 minutes and cooled on ice. The supernatant was centrifuged again at 10,000 g and 4° C. for 10 minutes to obtain the final supernatant, and ADP-ribose was quantitatively analyzed and compared using an ELISA analysis kit (Cell Biolabs, Inc., San Diego, CA, USA).\n5×10^5 Hep G2 cells were divided into the untreated group and 8 μM ADP-ribose-treated group and cultured in Eagle's Minimum Essential Medium supplemented with 10% fetal calf serum+100 units/ml penicillin+100 μg/ml streptomycin under conditions of 37° C. and 5% CO2 for 24 hours. The medium of the cultured cells was removed, and the supernatant prepared by treatment with RIPA buffer and 1% sodium dodecyl sulfate (SDS) was used for ELISA analysis to detect and analyze ADP-ribose."}, "[5]": {"test_system": "Pancreatic cancer (AsPC-1) cells", "test": "Xenograft model, combination with radiation, tumor volume", "type": "in vivo, BALB/c nude mice", "details": "AsPC-1 xenograft", "experimental": "(§1) Brain cancer (U-87MG), pancreatic cancer (AsPC-1), breast cancer (MDA-MB-231), or kidney cancer (Caki-1) cells (1×10^7 cells) were inoculated into 5-week-old BALB/c nude mice on the back flank, respectively. Then, when tumors were grown to a volume of approximately 150 mm^3, the mice were divided into three groups: the control group (Control), 2 Gy dose of radiation alone, and a combination administration of 2 Gy dose of radiation+10 mg/kg of ADP-ribose (subcutaneous administration, 3 times a week). The irradiation was performed with an X-Rad 320 irradiator (Precision X-ray, North Branford, CT, USA), wherein the mice were placed by maintaining an appropriate distance from the radiation source for irradiation with a predetermined radiation dose. A lead shield was used to protect the body parts or organs from exposure to radiation, other than the cancerous part of the mouse. The irradiation was performed with a total of 2 Gy of radiation fractionated into two doses of 1 Gy each (for 2 days) at a dose rate of 300 kVp and 150 cGy/min using an X-ray beam filter composed of 12.5 mA and 2.0 mm Al. The tumor size was measured every 6 days using a digital caliper, and the results of changes in tumor volume were compared by the group.\n(§2) Pancreatic cancer (AsPC-1) cells (1×10^7) were inoculated into 5-week-old BALB/c nude mice on the back flank, and the mice were divided into three groups: the control group (Control), 2 Gy dose of radiation alone, and combination administration of 2 Gy dose radiation+10 mg/kg of ADP-ribose. When the tumors were grown to a volume of approximately 150 mm^3, 2 Gy dose of radiation was irradiated twice at 1 Gy each, and 10 mg/kg of ADP-ribose was injected subcutaneously 3 times a week. The tumor size was measured using a digital caliper, and the results of changes in tumor volume were compared by the group."}, "[6]": {"test_system": "Pancreatic cancer (AsPC-1) cells", "test": "Xenograft model, oral ADP-ribose, tumor volume", "type": "in vivo, BALB/c nude mice", "details": "AsPC-1 xenograft, 5 times a week, control about 3194.3", "experimental": "Pancreatic cancer (AsPC-1) or kidney cancer (Caki-1) cells (1×10^7 cells) were inoculated into 5-week-old BALB/c nude mice on the back flank, and the mice were grown up to approximately 150 mm^3 of the tumor volume. Then, three concentrations of ADP-ribose were administered subcutaneously, intravenously, and orally 3 times a week. The tumor size was measured every 6 days using a digital caliper, and the changes in tumor volume were compared for each group.\nPancreatic cancer (AsPC-1) cells (1×10^7) were inoculated into 5-week-old BALB/c nude mice on the back flank, and the mice were divided into four groups: the control group (Control) and groups administered orally with 10, 40, and 80 mg/kg of ADP-ribose. When the tumors were grown to a volume of approximately 150 mm^3, each concentration of ADP-ribose was orally administered 5 times a week. The tumor size was measured using a digital caliper, and the results of changes in tumor volume were compared by the group."}, "[7]": {"test_system": "Brain cancer (U-87MG) cells", "test": "Xenograft model, combination with radiation, tumor volume", "type": "in vivo, BALB/c nude mice", "details": "U-87MG xenograft", "experimental": "as §1\nas §2, with “Brain” for “Pancreatic”, “(U-87MG)” for “(AsPC-1)”, “group,” for “group (Control),”"}, "[8]": {"test_system": "Kidney cancer (Caki-1) cells", "test": "Xenograft model, combination with radiation, tumor volume", "type": "in vivo, BALB/c nude mice", "details": "Caki-1 xenograft", "experimental": "as §1\nas §2, with “Kidney cancer (Caki-1)” for “Pancreatic cancer (AsPC-1)”, “Kidney cancer (Caki-1) cells (1×10^7)” for “Pancreatic cancer (AsPC-1) cells (1×10^7)”, “Gy dose radiation+20 mg/kg of” for “Gy dose radiation+10 mg/kg of”, “each, and 20 mg/kg of” for “each, and 10 mg/kg of”"}, "[9]": {"details": "ADP-ribose 10 mg/kg s.c. + 2 Gy radiation, P<0.001"}, "[10]": {"details": "ADP-ribose 20 mg/kg s.c. + 2 Gy radiation, P<0.001"}}}
{"smiles": "Nc1ncnc2c1ncn2[C@@H]1O[C@H](COP(=O)(O)OP(=O)(O)OC[C@H]2O[C@@H](O)C(O)C2O)C(O)C1O", "note": "(stereo partly drawn) [ADP-ribose, adenosine diphosphate ribose]", "values": [{"measurement": "survival rate of cancer cells", "setting": "[1]", "value": "about 7.3%"}, {"measurement": "cell death compared to the control group", "setting": "[2]", "value": "killed significantly"}, {"measurement": "IC50", "setting": "[3]; Homo sapiens, MDA-MB-231, 24 h, read-out: half-lethal dose (concentration at which about half of the cells were killed)", "value": "~16", "unit": "µM"}, {"measurement": "maximum lethal dose (concentration at which almost all cells were killed)", "setting": "[3]; MDA-MB-231, 24 hours, MTT", "value": 32, "unit": "µM"}, {"measurement": "cancer cell growth under a microscope", "setting": "[3]; MDA-MB-231, ADP-ribose treated vs control, FIG. 6A", "value": "inhibited from growing and killed"}, {"measurement": "amount of ADP-ribose in cells compared to the control group", "setting": "[4]", "value": "remarkably increased significantly"}, {"measurement": "reduction of tumor volume compared to the control group", "setting": "[5]; [9]", "value": "about 69.1%"}, {"measurement": "reduction of tumor volume compared to the group treated with 2 Gy dose of radiation alone", "setting": "[5]; [9]", "value": "about 57.3%"}, {"measurement": "final tumor volume", "setting": "[5]; ADP-ribose 10 mg/kg subcutaneous 3 times a week + 2 Gy radiation, control about 2384.3, 2 Gy alone about 1725.5", "value": "about 736.2 mm^3"}, {"measurement": "final tumor volume", "setting": "[6]; 10 mg/kg oral", "value": 1798.6, "unit": "mm^3"}, {"measurement": "final tumor volume", "setting": "[6]; 40 mg/kg oral", "value": 1175.9, "unit": "mm^3"}, {"measurement": "final tumor volume", "setting": "[6]; 80 mg/kg oral", "value": 1056.9, "unit": "mm^3"}, {"measurement": "reduction of tumor volume compared to the control group", "setting": "[7]; [9]", "value": "about 71.5%"}, {"measurement": "reduction of tumor volume compared to the group treated with 2 Gy dose of radiation alone", "setting": "[7]; [9]", "value": "about 50.7%"}, {"measurement": "final tumor volume", "setting": "[7]; ADP-ribose 10 mg/kg subcutaneous 3 times a week + 2 Gy radiation, control about 2545.2, 2 Gy alone about 1472.1", "value": "about 725.2 mm^3"}, {"measurement": "reduction of tumor volume compared to the control group", "setting": "[8]; [10]", "value": "about 70%"}, {"measurement": "reduction of tumor volume compared to the group treated with 2 Gy dose of radiation alone", "setting": "[8]; [10]", "value": "about 68%"}, {"measurement": "final tumor volume", "setting": "[8]; ADP-ribose 20 mg/kg subcutaneous 3 times a week + 2 Gy radiation, control about 2620.5, 2 Gy alone about 2454.5", "value": "about 786.4 mm^3"}]}
